28 compounds from patent US20120207763A1, “PYRROLOPYRIMIDINE COMPOUNDS AND THEIR USES” (ASTEX THERAPEUTICS LIMITED, priority 2006, published 2012) can be followed below.

Where two headings read alike, the source gives them in different places.

Common to all, as to assay type: biochemical
One experiment deals with CDK4 (Homo sapiens, UniProt P11802). As to the kind of experiment: CDK4 HTRF assay. To be noted: Table E; read-out: CDK4 HTRF/IC50 [umol l − 1]. A general note: Time-resolved FRET reads energy transfer from a long-lived donor to a nearby acceptor.
For experiment [1], the target named is CDK4/Cyclin-D1 kinase complex (Homo sapiens, UniProt P11802). As to the kind of experiment: CDK4 ELISA based assay, Rb Ser780 phosphorylation. The source says: The compounds that inhibit the CDK4 kinase activity would inhibit the signal output of the assay.
Experiment [2] concerns the target CDK2/Cyclin-A kinase complex (Homo sapiens, UniProt P24941). The experiment is described as follows: CDK2 IMAP fluorescence polarization assay. Summed up: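 Fluorescence polarization (IMAP) using purified active CDK2/Cyclin-A complex with a TAMRA-tagged Histone H1-derived peptide substrate; phosphorylated peptide bound by a metal-containing reagent raises polarization. Inhibition read as reduced fluorescence polarization signal.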

Where [3] appears, read: Table E, read-out: CDK4 ELISA assay IC50 [umol l−].
Setting [4] is: Table E, read-out: CDK2cyA IMAP/IC50 [umol l − 1].

Chain of CDK4 (P11802 whole entry): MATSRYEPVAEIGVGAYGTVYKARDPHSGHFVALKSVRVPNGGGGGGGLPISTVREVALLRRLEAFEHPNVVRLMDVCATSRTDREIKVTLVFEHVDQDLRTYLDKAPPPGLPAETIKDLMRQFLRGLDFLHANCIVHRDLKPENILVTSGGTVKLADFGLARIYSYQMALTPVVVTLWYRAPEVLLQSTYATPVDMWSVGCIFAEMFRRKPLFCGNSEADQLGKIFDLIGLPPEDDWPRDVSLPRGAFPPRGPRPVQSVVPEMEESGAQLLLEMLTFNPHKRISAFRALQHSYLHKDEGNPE
Chain of CDK4 (P24385 whole entry partner): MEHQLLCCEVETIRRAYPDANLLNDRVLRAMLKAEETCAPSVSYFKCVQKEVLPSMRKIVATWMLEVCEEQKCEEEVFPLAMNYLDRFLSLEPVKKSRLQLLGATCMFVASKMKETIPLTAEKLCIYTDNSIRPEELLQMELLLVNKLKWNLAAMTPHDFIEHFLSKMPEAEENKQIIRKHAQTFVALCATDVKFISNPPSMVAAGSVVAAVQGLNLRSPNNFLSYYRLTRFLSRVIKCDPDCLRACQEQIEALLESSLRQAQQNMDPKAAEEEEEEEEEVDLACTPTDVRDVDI
Chain of CDK4/Cyclin-D1 kinase complex (P11802 whole entry): as the sequence (P11802 whole entry) above
Chain of CDK4/Cyclin-D1 kinase complex (P24385 whole entry partner): as the sequence (P24385 whole entry partner) above

`CC(=O)c1c(C)n(C2CCCC2)c2nc(Nc3ccc(N4CCNCC4)cc3)ncc12` [Example 333, 1-[7-Cyclopentyl-6-methyl-2-(4-piperazin-1-yl-phenylamino)-7H-pyrrolo[2,3-d]pyrimidin-5-yl]-ethanone]: the IC50 at CDK4 was 10 µM; in experiment [1] (setting [3]), less than 10 µM; in experiment [2] (setting [4]) it was 10 µM.
With `CC(=O)N1CCN(c2ccc(Nc3ncc4ccn(C5CCCCCC5)c4n3)cc2)CC1` [Example 225], the IC50 at CDK4 is less than 1 µM; in experiment [1] (setting [3]) it was less than 1 µM; in experiment [2] (setting [4]) it was less than 10 µM.
Consider `Cc1cn(C2CCCCC2)c2nc(Nc3ccc4[nH]ncc4c3)ncc12` [Example 280], for which the values for the IC50 (at CDK4; in experiment [1] (setting [3]); in experiment [2] (setting [4])) were more than 10 µM, less than 10 µM and more than 10 µM, respectively.
Turning to `CCCC(C(=O)OCC)n1ccc2cnc(Nc3ccc(N4CCN(C(C)=O)CC4)cc3)nc21` (centres unmarked) [Example 224], the IC50 (on CDK4; in experiment [1] (setting [3])) was more than 10 µM throughout.
As to `CCC(CC)n1c(COC)cc2cnc(Nc3ccc(N4CCN(C(=O)OC(C)(C)C)CC4)cc3)nc21` [Example 381], the IC50 (on CDK4; in experiment [1] (setting [3])) was more than 10 µM each time.
Turning to `CCC(CC)n1c(C=NOC)cc2cnc(Nc3ccc(N4CCN(C(C)=O)CC4)cc3)nc21` [Example 364], the results for the IC50 (on CDK4; in experiment [1] (setting [3]); in experiment [2] (setting [4])) were less than 1 µM, more than 10 µM and less than 10 µM, respectively.
Regarding `CC(C)(C)OC(=O)N1CCN(c2ccc(Nc3ncc4ccn(C5CCCC5)c4n3)cc2)CC1` [Example 427], the IC50 (at CDK4; in experiment [1] (setting [3])) was more than 10 µM in each case.
Consider `CCC(CC)n1c(CO)cc2cnc(Nc3ccc(N4CCN(C(C)=O)CC4)cc3)nc21` [Example 362, 1-(4-{4-[7-(1-Ethyl-propyl)-6-hydroxymethyl-7H-pyrrolo[2,3-d]pyrimidin-2-ylamino]-phenyl}-piperazin-1-yl)-ethanone], for which the values for the IC50 in experiment [1] (setting [3]) and in experiment [2] (setting [4]) were more than 10 µM and less than 1 µM, respectively.
With `CCC(CC)N1C(=O)C(C)(C)c2cnc(Nc3ccc(N4CCN(C)CC4)cc3)nc21` [drawing 155], the IC50 in experiment [1] (Table C, read-out: CDK4 IC50) is less than 10 µM; in experiment [2] (Table C, read-out: CDK2 IC50), less than 10 µM.
Turning to `CCC(CC)n1c(COC)cc2cnc(Nc3ccc(N4CCN(C(C)=O)CC4)cc3)nc21` [Example 379], the IC50 in experiment [1] (setting [3]) and in experiment [2] (setting [4]) was more than 10 µM each time.
Take `CCC(CC)n1ccc2cnc(Nc3ccc(N4CCN(C)CC4)cn3)nc21` [Example 207]: the IC50 in experiment [1] (setting [3]) was less than 10 µM; in experiment [2] (setting [4]), more than 10 µM.
Consider `CCC(CC)n1c(COC)cc2cnc(Nc3ccc(N4CCNCC4)cc3)nc21` [Example 382], for which the IC50 was less than 1 µM on CDK4, more than 10 µM in experiment [1] (setting [3]) and less than 10 µM in experiment [2] (setting [4]).
The like results for `CC(=O)c1c(C)c2cnc(Nc3ccc(N4CCNCC4)cn3)nc2n1C1CCCC1` [Example 387] were, in that order, less than 1 µM, less than 1 µM and 10 µM.
On to `CCC(CC)n1c(C)cc2cnc(Nc3ccc(N4CCNCC4)cc3)nc21` [Example 329, [7-(1-Ethyl-propyl)-6-methyl-7H-pyrrolo[2,3-d]pyrimidin-2-yl]-(4-piperazin-1-yl-phenyl)-amine], for which the IC50 was more than 10 µM in experiment [1] (setting [3]) and less than 1 µM in experiment [2] (setting [4]).
For the compound `CCC(CC)n1c(C(=O)O)cc2cnc(Nc3ccc(N4CCN(C(C)=O)CC4)cc3)nc21` [Example 374, 2-[4-(4-Acetyl-piperazin-1-yl)-phenylamino]-7-(1-ethyl-propyl)-7H-pyrrolo[2,3-d]pyrimidine-6-carboxylic acid], the IC50 (at CDK4; in experiment [1] (setting [3]); in experiment [2] (setting [4])) was less than 1 µM each time.
Consider `CCC(C(=O)O)n1ccc2cnc(Nc3ccc(N4CCN(C(C)=O)CC4)cc3)nc21` (centres unmarked) [Example 220], for which the IC50 (at CDK4; in experiment [1] (setting [3])) was more than 10 µM in each case.
For `CC(=O)N1CCN(c2ccc(Nc3ncc4c(C)cn(C5CC5)c4n3)cc2)CC1` [Example 275], the IC50 is more than 10 µM on CDK4, 8 µM in experiment [1] (setting [3]) and more than 10 µM in experiment [2] (setting [4]).
`CCC(CC)n1ccc2cnc(Nc3cccc(OCCn4ccnc4)c3)nc21` [Example 213]: the IC50 is less than 10 µM in experiment [1] (setting [3]) and less than 1 µM in experiment [2] (setting [4]).
As for `CC(=O)c1cn(C2CCCC2)c2nc(Nc3ccc(N4CCNCC4)cc3)ncc12` [Example 326, 1-[7-cyclopentyl-2-(4-piperazin-1-yl-phenylamino)-7H-pyrrolo[2,3-d]pyrimidin-5-yl]-ethanone], the IC50 at CDK4 is 10 µM; in experiment [1] (setting [3]), more than 10 µM.
Take `CN1CCN(c2ccc(Nc3ncc4ccn(C5CCCC5)c4n3)nc2)CC1` [Example 255]: the IC50 in experiment [1] (setting [3]) and in experiment [2] (setting [4]) was more than 10 µM each time.
In the case of `CCC(CC)n1c(C(=O)O)cc2cnc(Nc3ccc(N4CCNCC4)cc3)nc21` [Example 375, 7-(1-Ethyl-propyl)-2-(4-piperazin-1-yl-phenylamino)-7H-pyrrolo[2,3-d]pyrimidine-6-carboxylic acid], the IC50 (on CDK4; in experiment [1] (setting [3]); in experiment [2] (setting [4])) was less than 1 µM in each case.
`CC(=O)c1c(C)c2cnc(Nc3ccc(N4CCNCC4)cc3)nc2n1C1CCCC1` [Example 383]: the IC50 (at CDK4; in experiment [1] (setting [3]); in experiment [2] (setting [4])) was less than 1 µM in each case.
For the compound `c1cc2cn[nH]c2cc1Nc1ncc2ccn(C3CCCC3)c2n1` [Example 257], the IC50 in experiment [1] (setting [3]) and in experiment [2] (setting [4]) was less than 10 µM throughout.
Take `CCC(CC)N1C(=O)Cc2cnc(Nc3ccc(N4CCNCC4)cn3)nc21`: the IC50 in experiment [1] (Table C, read-out: CDK4 IC50) is more than 10 µM; in experiment [2] (Table C, read-out: CDK2 IC50), less than 10 µM.
Regarding `CCC(CC)n1ccc2cnc(Nc3ccc(C4CCCNC4)cc3)nc21` (centres unmarked) [Example 211], the IC50 in experiment [1] (setting [3]) and in experiment [2] (setting [4]) was less than 10 µM each time.
In the case of `CCC(CC)n1c(C=O)cc2cnc(Nc3ccc(N4CCN(C(C)=O)CC4)cc3)nc21` [Example 361, 2-[4-(4-Acetyl-piperazin-1-yl)-phenylamino]-7-(1-ethyl-propyl)-7H-pyrrolo[2,3-d]pyrimidine-6-carbaldehyde], the IC50 (on CDK4; in experiment [1] (setting [3]); in experiment [2] (setting [4])) was less than 1 µM each time.
With `CCC(CC)n1ccc2cnc(Nc3ccc(C(=O)N4CCOCC4)cc3)nc21` [Example 212], the IC50 in experiment [1] (setting [3]) is less than 10 µM; in experiment [2] (setting [4]), less than 1 µM.
`Cc1cc2cnc(Nc3ccc(N4CCNCC4)cc3)nc2n1C1CCCC1` [Example 430]: the IC50 (at CDK4; in experiment [1] (setting [3]); in experiment [2] (setting [4])) was less than 1 µM throughout.
